Test results from ChEMBL document CHEMBL5316379, “Potent and Selective BCL-XL Inhibitors and PROTAC Compounds as Potential Cancer Treatment and Immunotherapy” (ACS Med Chem Lett, 2023).

Legend:
[1] = target: von Hippel-Lindau disease tumor suppressor/Bcl-2-like protein 1 (Homo sapiens, UniProt P40337+Q07817); assay: Protac activity at VHL/BCL-xl in human NCI-H1650 cells assessed as induction of BCL-xl degradation by Nano-Glo HiBiT assay; assay type: cell-based
EBC-1 = assay: Growth inhibition of human EBC-1 cells assessed as cell viability incubated for 5 days by CellTiter-Glo assay; assay type: functional; conditions: EBC-1, 120 h, time 5 day

Chain of von Hippel-Lindau disease tumor suppressor/Bcl-2-like protein 1 (Q07817 whole entry): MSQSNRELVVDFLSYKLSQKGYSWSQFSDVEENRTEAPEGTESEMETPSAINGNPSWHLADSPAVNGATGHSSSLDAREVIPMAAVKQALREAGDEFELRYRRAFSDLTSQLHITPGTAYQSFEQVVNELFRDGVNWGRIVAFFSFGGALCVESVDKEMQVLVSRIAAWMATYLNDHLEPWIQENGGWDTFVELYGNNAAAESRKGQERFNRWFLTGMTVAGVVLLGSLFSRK
Chain of von Hippel-Lindau disease tumor suppressor/Bcl-2-like protein 1 (P40337 whole entry): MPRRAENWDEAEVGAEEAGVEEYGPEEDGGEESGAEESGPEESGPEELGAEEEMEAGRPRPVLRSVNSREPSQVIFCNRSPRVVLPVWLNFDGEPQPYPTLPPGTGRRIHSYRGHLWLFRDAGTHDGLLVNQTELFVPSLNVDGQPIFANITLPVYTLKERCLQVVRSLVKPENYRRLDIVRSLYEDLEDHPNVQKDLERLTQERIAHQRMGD

Structure (SMILES) | EC50 [1] | GI50 (EBC-1)
Cc1ncsc1-c1ccc([C@H](C)NC(=O)[C@@H]2C[C@@H](O)CN2C(=O)[C@@H](NC(=O)CCCCCCCCCCCCCCCN(C)CCOC23C[C@@]4(C)C[C@@](C)(C2)C[C@@](Cn2ncc(-c5ccc(N6CCCc7c6nnc(Nc6nc8ccccc8s6)c7C)nc5C(=O)O)c2C)(C3)C4)C(C)(C)C)cc1 | 1 nM | 5 nM
Cc1ncsc1-c1ccc([C@H](C)NC(=O)[C@@H]2C[C@@H](O)CN2C(=O)[C@@H](NC(=O)CCCCCCCCCCCCCN(C)CCOC23C[C@@]4(C)C[C@@](C)(C2)C[C@@](Cn2ncc(-c5ccc(N6CCCc7c6nnc(Nc6nc8ccccc8s6)c7C)nc5C(=O)O)c2C)(C3)C4)C(C)(C)C)cc1 | – | 1 nM
Cc1ncsc1-c1ccc([C@H](C)NC(=O)[C@@H]2C[C@@H](O)CN2C(=O)[C@@H](NC(=O)CCCCCCCCN(C)CCOC23C[C@@]4(C)C[C@@](C)(C2)C[C@@](Cn2ncc(-c5ccc(N6CCCc7c6nnc(Nc6nc8ccccc8s6)c7C)nc5C(=O)O)c2C)(C3)C4)C(C)(C)C)cc1 | 2 nM | 23 nM
Cc1ncsc1-c1ccc([C@H](C)NC(=O)[C@@H]2C[C@@H](O)CN2C(=O)[C@@H](NC(=O)CCCCCCCCCCCN(C)CCOC23C[C@@]4(C)C[C@@](C)(C2)C[C@@](Cn2ncc(-c5ccc(N6CCCc7c6nnc(Nc6nc8ccccc8s6)c7C)nc5C(=O)O)c2C)(C3)C4)C(C)(C)C)cc1 | 1 nM | 13 nM
Cc1ncsc1-c1ccc([C@H](C)NC(=O)[C@@H]2C[C@@H](O)CN2C(=O)[C@@H](NC(=O)CCCCCCCCCCCCCCN(C)CCOC23C[C@@]4(C)C[C@@](C)(C2)C[C@@](Cn2ncc(-c5ccc(N6CCCc7c6nnc(Nc6nc8ccccc8s6)c7C)nc5C(=O)O)c2C)(C3)C4)C(C)(C)C)cc1 | 1 nM | 2 nM

Second part, led by results:

EC50 [1] | Structure (SMILES) | GI50 (EBC-1)
3 nM | Cc1ncsc1-c1ccc([C@H](C)NC(=O)[C@@H]2C[C@@H](O)CN2C(=O)[C@@H](NC(=O)CCCCCCCN(C)CCOC23C[C@@]4(C)C[C@@](C)(C2)C[C@@](Cn2ncc(-c5ccc(N6CCCc7c6nnc(Nc6nc8ccccc8s6)c7C)nc5C(=O)O)c2C)(C3)C4)C(C)(C)C)cc1 | 13 nM
3 nM | Cc1ncsc1-c1ccc([C@H](C)NC(=O)[C@@H]2C[C@@H](O)CN2C(=O)[C@@H](NC(=O)CCCCCCN(C)CCOC23C[C@@]4(C)C[C@@](C)(C2)C[C@@](Cn2ncc(-c5ccc(N6CCCc7c6nnc(Nc6nc8ccccc8s6)c7C)nc5C(=O)O)c2C)(C3)C4)C(C)(C)C)cc1 | 9 nM
